Experimental data from patent publication US8178668B2, “2-aminopyridine kinase inhibitors” (OSI Pharmaceuticals, LLC, priority 2008, dated 2012).

Tests used:
RON (human) = RON (human) (Homo sapiens, UniProt Q04912); assay: RON kinase AlphaScreen assay (Km of ATP); type: biochemical; conditions: ATP at Km; at least duplicate experiments
Outline: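 AlphaScreen with PT66 donor/acceptor beads, read after 1 h, detected phosphorylation of biotinylated poly(Glu,Tyr) by human RON. Enzyme-started reactions ran 30 min at room temperature with ATP at Km. Buffer was HEPES pH 7.4 with MgCl2, glycerol, vanadate and 1% DMSO.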

MET (human) = MET (human) (Homo sapiens, UniProt P08581); assay: MET kinase AlphaScreen assay (Km of ATP); type: biochemical; conditions: ATP at Km; at least duplicate experiments
Chain of MET (human) (P08581 25-1390): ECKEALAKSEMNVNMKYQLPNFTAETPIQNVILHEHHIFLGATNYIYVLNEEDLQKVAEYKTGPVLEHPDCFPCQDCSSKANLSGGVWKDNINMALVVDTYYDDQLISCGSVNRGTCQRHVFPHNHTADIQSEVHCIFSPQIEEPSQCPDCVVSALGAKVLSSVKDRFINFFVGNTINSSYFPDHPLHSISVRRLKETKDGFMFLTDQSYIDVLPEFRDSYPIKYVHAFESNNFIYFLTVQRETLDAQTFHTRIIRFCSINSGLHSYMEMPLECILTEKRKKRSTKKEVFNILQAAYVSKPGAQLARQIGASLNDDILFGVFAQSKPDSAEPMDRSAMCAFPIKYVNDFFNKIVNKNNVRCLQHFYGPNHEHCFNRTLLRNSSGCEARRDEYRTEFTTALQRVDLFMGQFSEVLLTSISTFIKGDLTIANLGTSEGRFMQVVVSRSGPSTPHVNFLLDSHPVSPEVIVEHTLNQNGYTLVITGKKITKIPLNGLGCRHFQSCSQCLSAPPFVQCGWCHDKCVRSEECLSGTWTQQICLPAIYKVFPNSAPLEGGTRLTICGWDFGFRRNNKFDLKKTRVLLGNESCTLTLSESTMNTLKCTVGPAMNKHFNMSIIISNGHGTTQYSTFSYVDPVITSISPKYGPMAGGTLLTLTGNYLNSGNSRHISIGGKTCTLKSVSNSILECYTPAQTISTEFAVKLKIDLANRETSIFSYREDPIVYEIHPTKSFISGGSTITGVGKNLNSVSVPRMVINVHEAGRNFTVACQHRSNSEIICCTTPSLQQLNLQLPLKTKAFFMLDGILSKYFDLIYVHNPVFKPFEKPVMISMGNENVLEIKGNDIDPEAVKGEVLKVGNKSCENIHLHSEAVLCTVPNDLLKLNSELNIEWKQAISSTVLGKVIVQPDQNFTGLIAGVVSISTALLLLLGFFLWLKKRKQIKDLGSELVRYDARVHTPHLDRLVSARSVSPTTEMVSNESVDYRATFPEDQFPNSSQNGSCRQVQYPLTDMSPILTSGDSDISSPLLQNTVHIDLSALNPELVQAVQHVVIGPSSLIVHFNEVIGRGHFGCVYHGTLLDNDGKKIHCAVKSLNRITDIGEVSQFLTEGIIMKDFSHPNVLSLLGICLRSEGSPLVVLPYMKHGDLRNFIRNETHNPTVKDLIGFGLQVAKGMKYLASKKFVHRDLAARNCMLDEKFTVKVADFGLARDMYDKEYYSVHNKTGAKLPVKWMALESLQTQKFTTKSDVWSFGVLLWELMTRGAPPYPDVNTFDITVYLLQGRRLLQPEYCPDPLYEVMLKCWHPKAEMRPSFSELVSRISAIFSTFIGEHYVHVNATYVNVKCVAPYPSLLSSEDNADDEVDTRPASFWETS
Outline: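 AlphaScreen detection with PT66 beads (1 h) follows a 60 min room-temperature MET reaction. Substrate is 200 ng/μL biotinylated poly(Glu,Tyr), with ATP set at an enzyme-optimized concentration. Buffer is HEPES pH 7.4 with MgCl2, MnCl2 and 0.334 mM vanadate, compounds at 1% DMSO.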

Chain of RON (human) (Q04912 25-1400): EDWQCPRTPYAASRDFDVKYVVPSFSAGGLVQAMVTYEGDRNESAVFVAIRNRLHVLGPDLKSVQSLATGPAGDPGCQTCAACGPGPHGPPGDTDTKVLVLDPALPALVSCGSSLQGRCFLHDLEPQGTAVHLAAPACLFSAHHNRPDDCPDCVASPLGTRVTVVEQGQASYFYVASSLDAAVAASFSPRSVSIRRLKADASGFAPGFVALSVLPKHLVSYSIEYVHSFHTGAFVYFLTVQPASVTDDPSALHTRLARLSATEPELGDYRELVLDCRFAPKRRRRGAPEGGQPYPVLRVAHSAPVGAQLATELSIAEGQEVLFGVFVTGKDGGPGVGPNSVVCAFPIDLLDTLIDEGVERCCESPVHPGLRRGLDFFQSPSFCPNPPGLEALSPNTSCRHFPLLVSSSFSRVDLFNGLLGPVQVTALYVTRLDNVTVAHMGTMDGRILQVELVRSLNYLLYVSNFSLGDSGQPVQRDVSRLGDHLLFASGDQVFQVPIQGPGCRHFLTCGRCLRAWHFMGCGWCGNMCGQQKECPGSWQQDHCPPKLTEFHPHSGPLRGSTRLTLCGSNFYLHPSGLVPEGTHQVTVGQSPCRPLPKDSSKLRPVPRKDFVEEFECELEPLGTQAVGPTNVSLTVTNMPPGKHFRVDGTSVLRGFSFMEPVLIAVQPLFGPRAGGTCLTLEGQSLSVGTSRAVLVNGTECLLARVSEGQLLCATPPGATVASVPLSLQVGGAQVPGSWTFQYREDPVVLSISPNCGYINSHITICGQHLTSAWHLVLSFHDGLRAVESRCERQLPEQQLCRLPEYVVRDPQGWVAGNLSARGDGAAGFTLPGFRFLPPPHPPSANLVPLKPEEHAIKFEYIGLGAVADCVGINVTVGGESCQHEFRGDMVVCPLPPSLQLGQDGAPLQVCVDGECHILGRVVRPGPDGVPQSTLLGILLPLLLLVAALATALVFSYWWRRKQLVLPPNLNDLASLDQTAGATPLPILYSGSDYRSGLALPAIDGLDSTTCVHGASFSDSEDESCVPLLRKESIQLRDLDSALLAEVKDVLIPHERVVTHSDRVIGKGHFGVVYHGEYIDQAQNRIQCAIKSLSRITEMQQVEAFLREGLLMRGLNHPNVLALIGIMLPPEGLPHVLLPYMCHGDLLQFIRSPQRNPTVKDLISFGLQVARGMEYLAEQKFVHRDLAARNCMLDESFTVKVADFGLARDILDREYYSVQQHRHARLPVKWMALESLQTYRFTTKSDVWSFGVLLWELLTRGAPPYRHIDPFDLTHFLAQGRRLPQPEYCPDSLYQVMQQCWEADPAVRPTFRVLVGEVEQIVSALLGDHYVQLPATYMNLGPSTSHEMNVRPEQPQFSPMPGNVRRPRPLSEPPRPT

IC50 (RON (human))	IC50 (MET (human))	SMILES
100 to 1000 nM	≤ 100 nM	Nc1ncc(-c2cnn(C3CCNCC3)c2)cc1-c1nc2c(F)cccc2s1 [Example 256, 3-(4-Fluorobenzothiazol-2-yl)-5-(1-piperidin-4-yl-1H-pyrazol-4-yl)-pyridin-2-ylamine]
100 to 1000 nM	100 to 1000 nM	Cc1cccc2sc(-c3cc(-c4cnn(C5CCNCC5)c4)cnc3N)nc12 [Example 257, 3-(4-Methylbenzothiazol-2-yl)-5-(1-piperidin-4-yl-1H-pyrazol-4-yl)-pyridin-2-ylamine]
100 to 1000 nM	≤ 100 nM	Nc1ncc(-c2cnn(C3CCNCC3)c2)cc1-c1nc2cc(Cl)ccc2s1 [Example 258, 3-(5-Chlorobenzothiazol-2-yl)-5-(1-piperidin-4-yl-1H-pyrazol-4-yl)-pyridin-2-ylamine]
≤ 100 nM	≤ 100 nM	Nc1ncc(-c2cnn(C3CCNCC3)c2)cc1-c1nc2cccc(Cl)c2s1 [Example 259, 3-(7-Chlorobenzothiazol-2-yl)-5-(1-piperidin-4-yl-1H-pyrazol-4-yl)-pyridin-2-ylamine]
100 to 1000 nM	100 to 1000 nM	Nc1ncc(-c2cnn(C3CCNCC3)c2)cc1-c1nc2cccc(C(F)(F)F)c2s1 [Example 260, 5-(1-Piperidin-4-yl-1H-pyrazol-4-yl)-3-(7-trifluoromethylbenzothiazol-2-yl)-pyridin-2-ylamine]
100 to 1000 nM	100 to 1000 nM	Nc1ncc(-c2cnn(C3CCNCC3)c2)cc1-c1nc2cc(C(F)(F)F)ccc2s1 [Example 261, 5-(1-Piperidin-4-yl-1H-pyrazol-4-yl)-3-(5-trifluoromethylbenzothiazol-2-yl)-pyridin-2-ylamine]
100 to 1000 nM	100 to 1000 nM	Nc1ncc(-c2cnn(C3CCNCC3)c2)cc1-c1nc2c(C(F)(F)F)cccc2s1 [Example 262, 5-(1-Piperidin-4-yl-1H-pyrazol-4-yl)-3-(4-trifluoromethylbenzothiazol-2-yl)-pyridin-2-ylamine]
≤ 100 nM	≤ 100 nM	Cc1cccc2nc(-c3cc(-c4cnn(C5CCNCC5)c4)cnc3N)sc12 [Example 263, 3-(7-Methylbenzothiazol-2-yl)-5-(1-piperidin-4-yl-1H-pyrazol-4-yl)-pyridin-2-ylamine]
100 to 1000 nM	≤ 100 nM	COc1cccc2nc(-c3cc(-c4cnn(C5CCNCC5)c4)cnc3N)sc12 [Example 264, 3-(7-Methoxybenzothiazol-2-yl)-5-(1-piperidin-4-yl-1H-pyrazol-4-yl)-pyridin-2-ylamine]
100 to 1000 nM	≤ 100 nM	Nc1ncc(-c2cnn(C3CCNCC3)c2)cc1-c1nc2c(Br)cccc2s1 [Example 265, 3-(4-Bromobenzothiazol-2-yl)-5-(1-piperidin-4-yl-1H-pyrazol-4-yl)-pyridin-2-ylamine]
1000 to 20000 nM	1000 to 20000 nM	Nc1ncc(-c2cnn(C3CCNCC3)c2)cc1-c1nc2ccc(OC(F)(F)F)cc2s1 [Example 266, 5-(1-Piperidin-4-yl-1H-pyrazol-4-yl)-3-(6-trifluoromethoxybenzothiazol-2-yl)-pyridin-2-ylamine]
≤ 100 nM	≤ 100 nM	N#Cc1ccc2sc(-c3cc(-c4cnn(C5CCNCC5)c4)cnc3N)nc2c1 [Example 267, 2-[2-Amino-5-(1-piperidin-4-yl-1H-pyrazol-4-yl)-pyridin-3-yl]-benzothiazole-5-carbonitrile]
100 to 1000 nM	100 to 1000 nM	N#Cc1ccc2nc(-c3cc(-c4cnn(C5CCNCC5)c4)cnc3N)sc2c1 [Example 268, 2-[2-Amino-5-(1-piperidin-4-yl-1H-pyrazol-4-yl)-pyridin-3-yl]-benzothiazole-6-carbonitrile]
100 to 1000 nM	100 to 1000 nM	Nc1ncc(-c2cnn(C3CCNCC3)c2)cc1-c1nc2c(C(F)(F)F)ccc(F)c2s1 [Example 269, 3-(7-Fluoro-4-trifluoromethylbenzothiazol-2-yl)-5-(1-piperidin-4-yl-1H-pyrazol-4-yl)-pyridin-2-ylamine]
100 to 1000 nM	100 to 1000 nM	Nc1ncc(-c2cnn(C3CCNCC3)c2)cc1-c1nc2cccc(F)c2s1 [Example 270, 3-(7-Fluorobenzothiazol-2-yl)-5-(1-piperidin-4-yl-1H-pyrazol-4-yl)-pyridin-2-ylamine]
100 to 1000 nM	100 to 1000 nM	COc1ccc2sc(-c3cc(-c4cnn(C5CCNCC5)c4)cnc3N)nc2c1 [Example 271, 3-(5-Methoxybenzothiazol-2-yl)-5-(1-piperidin-4-yl-1H-pyrazol-4-yl)-pyridin-2-ylamine]
100 to 1000 nM	100 to 1000 nM	Cc1ccc2sc(-c3cc(-c4cnn(C5CCNCC5)c4)cnc3N)nc2c1 [Example 272, 3-(5-Methylbenzothiazol-2-yl)-5-(1-piperidin-4-yl-1H-pyrazol-4-yl)-pyridin-2-ylamine]

IC50 (RON (human))	IC50 (MET (human))	SMILES
≤ 100 nM	≤ 100 nM	Nc1ncc(-c2cnn(C3CCNCC3)c2)cc1-c1nc2cccc(Br)c2s1 [Example 273, 3-(7-Bromobenzothiazol-2-yl)-5-(1-piperidin-4-yl-1H-pyrazol-4-yl)-pyridin-2-ylamine]
100 to 1000 nM	≤ 100 nM	Nc1ncc(-c2cnn(C3CCNCC3)c2)cc1-c1nc2c(F)c(F)ccc2s1 [Example 274, 3-(4,5-Difluorobenzothiazol-2-yl)-5-(1-piperidin-4-yl-1H-pyrazol-4-yl)-pyridin-2-ylamine]
100 to 1000 nM	100 to 1000 nM	N#Cc1cccc2nc(-c3cc(-c4cnn(C5CCNCC5)c4)cnc3N)sc12 [Example 275, 2-[2-Amino-5-(1-piperidin-4-yl-1H-pyrazol-4-yl)-pyridin-3-yl]-benzothiazole-7-carbonitrile]
100 to 1000 nM	100 to 1000 nM	Nc1ncc(-c2cnn(C3CCNCC3)c2)cc1-c1nc2cc(Br)ccc2s1 [Example 276, 3-(5-Bromobenzothiazol-2-yl)-5-(1-piperidin-4-yl-1H-pyrazol-4-yl)-pyridin-2-ylamine]
100 to 1000 nM	100 to 1000 nM	COc1cccc2sc(-c3cc(-c4cnn(C5CCNCC5)c4)cnc3N)nc12 [Example 277, 3-(4-Methoxybenzothiazol-2-yl)-5-(1-piperidin-4-yl-1H-pyrazol-4-yl)-pyridin-2-ylamine]
100 to 1000 nM	≤ 100 nM	Nc1ncc(-c2cnn(C3CCNCC3)c2)cc1-c1nc2c(Cl)cccc2s1 [Example 278, 3-(4-Chlorobenzothiazol-2-yl)-5-(1-piperidin-4-yl-1H-pyrazol-4-yl)-pyridin-2-ylamine]
100 to 1000 nM	100 to 1000 nM	Nc1ncc(-c2cnn(C3CCNCC3)c2)cc1-c1nc2ccc(C(F)(F)F)cc2s1 [Example 279, 5-(1-Piperidin-4-yl-1H-pyrazol-4-yl)-3-(6-trifluoromethylbenzothiazol-2-yl)-pyridin-2-ylamine]
100 to 1000 nM	100 to 1000 nM	Cc1ccc(C(F)(F)F)c2nc(-c3cc(-c4cnn(C5CCNCC5)c4)cnc3N)sc12 [Example 280, 3-(7-Methyl-4-trifluoromethylbenzothiazol-2-yl)-5-(1-piperidin-4-yl-1H-pyrazol-4-yl)-pyridin-2-ylamine]
100 to 1000 nM	100 to 1000 nM	Nc1ncc(-c2cnn(C3CCNCC3)c2)cc1-c1nc2cc(OC(F)(F)F)ccc2s1 [Example 281, 5-(1-Piperidin-4-yl-1H-pyrazol-4-yl)-3-(5-trifluoromethoxybenzothiazol-2-yl)-pyridin-2-ylamine]
100 to 1000 nM	100 to 1000 nM	Nc1ncc(-c2cnn(C3CCNCC3)c2)cc1-c1nc2c(C(F)(F)F)ccc(Cl)c2s1 [Example 282, 3-(7-Chloro-4-trifluoromethylbenzothiazol-2-yl)-5-(1-piperidin-4-yl-1H-pyrazol-4-yl)-pyridin-2-ylamine]
≤ 100 nM	≤ 100 nM	Nc1ncc(-c2cnn(C3CCNCC3)c2)cc1-c1nc2cc(F)ccc2s1 [Example 283, 3-(5-Fluorobenzothiazol-2-yl)-5-(1-piperidin-4-yl-1H-pyrazol-4-yl)-pyridin-2-ylamine]
100 to 1000 nM	100 to 1000 nM	N#Cc1cccc2sc(-c3cc(-c4cnn(C5CCNCC5)c4)cnc3N)nc12 [Example 284, 2-[2-Amino-5-(1-piperidin-4-yl-1H-pyrazol-4-yl)-pyridin-3-yl]-benzothiazole-4-carbonitrile]
1000 to 20000 nM	100 to 1000 nM	Nc1ncc(-c2cnn(C3CCNCC3)c2)cc1-c1nc2c(OC(F)(F)F)cccc2s1 [Example 285, 5-(1-Piperidin-4-yl-1H-pyrazol-4-yl)-3-(4-trifluoromethoxybenzothiazol-2-yl)-pyridin-2-ylamine]
100 to 1000 nM	100 to 1000 nM	Nc1ncc(-c2cnn(C3CCNCC3)c2)cc1-c1nc2c(C(F)(F)F)c(F)ccc2s1 [Example 286, 3-(5-Fluoro-4-trifluoromethylbenzothiazol-2-yl)-5-(1-piperidin-4-yl-1H-pyrazol-4-yl)-pyridin-2-ylamine]
100 to 1000 nM	1000 to 20000 nM	Nc1ncc(-c2cnn(C3CCNCC3)c2)cc1-c1nc2c(Br)cc(OC(F)(F)F)cc2s1 [Example 287, 3-(4-Bromo-6-trifluoromethoxybenzothiazol-2-yl)-5-(1-piperidin-4-yl-1H-pyrazol-4-yl)-pyridin-2-ylamine]
> 20000 nM	100 to 1000 nM	Nc1ncc(-c2cnn(CCC(=O)N3CCCCC3)c2)cc1-c1nc2ccccc2s1 [Example 288, 3-[4-(6-Amino-5-benzothiazol-2-ylpyridin-3-yl)-pyrazol-1-yl]-1-piperidin-1-ylpropan-1-one]
1000 to 20000 nM	100 to 1000 nM	Nc1ncc(-c2cnn(CCC(=O)N3CCC(O)C3)c2)cc1-c1nc2ccccc2s1 (centres unmarked) [Example 289, 3-[4-(6-Amino-5-benzothiazol-2-ylpyridin-3-yl)-pyrazol-1-yl]-1-(3-hydroxypyrrolidin-1-yl)-propan-1-one]
